Entries after “also recorded” stand apart in the source; their conditions may differ.
System: PLA2 of five major snake venoms in the U.S. (all major North American crotalid venoms)
Assay: Cross-species anti-PLA2 activity of phage clone
Assay type: biochemical
Settings: five major snake venoms in the U.S. (FIG. 4)
Method: Analysis of PLAz activity was conducted using the EnzChek® PLAz Assay Kit (Thermo Fisher Scientific, Waltham, Mass.). Individual phage clones were standardized to […] and diluted in log steps. Diluted phages were incubated with 4.88 μg/ml Western Cottonmouth venom for 30 minutes at RT. Fluorescence emission spectra (excitation at 485 nm, emission at 528 nm) was measured for 20 minutes at 1.0 minute intervals to monitor the reaction. PLA2 activity was determined by comparing the phage inhibited venom to uninhibited venom controls.
Originally consensus peptide for panning target was designed with ˜95% homology of all major North American crotalid PLA2. This cross-species reactivity of the selected phage clone is the best evidence for the potential development of a universal antivenom using phage display technique.

Q: With KLIHGNGVMDEG [Ph.D.-12-7] as the sequence, how does the “cross-species anti-PLA2 activities” value read?
A: Its value is “cross-species anti-PLA2 activity; also recorded: showed anti-PLA2 activities across all major North American crotalid venoms”.

— patent US10961276B2, “Universal antivenom” (CAMRIS International, Inc., priority 2017, dated 2021)
